Measured values as given in patent US5099015A, “Trifluoromethyl 1-carba(1-dethia)cephems” (Eli Lilly and Company, priority 1991, dated 1992).
≈ marks a conversion by molar mass, not a printed value. Where two headings read alike, the source gives them in different places.

Tests used:
Test in all cases: Agar dilution antibacterial test (MIC)
Format in all cases: cell-based
[1] = tested on: Salmonella X514
Procedure: (§1) Fresh overnight cultures of test bacteria were diluted to approximately 1x(10)4 cells/microliter and applied in one microliter volumes to the surfaces of the agar plates. The innoculated plates were incubated overnight at 35° C. in ambient air. Minimum inhibitory concentration (mic) endpoints were recorded as the lowest antibiotic concentrations in micrograms per milliliter that inhibited the development of visible growth on the plates. The following summarizes the results of such tests with the compounds of the examples listed above.

[2] = tested on: Staphylococcus aureus S13E
Procedure: as §1

[3] = tested on: Staphylococcus epidermidis 222
Procedure: as §1

[4] = tested on: Enterobacter aerogenes C32
Procedure: as §1

[5] = tested on: Staphylococcus pneumoniae Park 1; conditions: PARK1, read-out: MIC
Procedure: as §1

[6] = tested on: Proteus incon PR33
Procedure: as §1

[7] = tested on: Morg morg PR15
Procedure: as §1

[8] = tested on: Enterococcus faecalis 2041
Procedure: as §1

[9] = tested on: Staphylococcus aureus X400
Procedure: as §1

[10] = tested on: Haemophilus influenzae C.L.
Procedure: as §1

[11] = tested on: Escherichia coli N10
Procedure: as §1

[12] = tested on: Escherichia coli EC14
Procedure: as §1

[13] = tested on: Escherichia coli TEM
Procedure: as §1

[14] = tested on: Enterobacter cloacae 265A
Procedure: as §1

[15] = tested on: Enterococcus faecium X66
Procedure: as §1

[16] = tested on: Proteus rett C24; conditions: Proteus rett C24
Procedure: as §1

[17] = tested on: Shig sonn. N9
Procedure: as §1

[18] = tested on: Salmonella 1335
Procedure: as §1

[19] = tested on: Enterobacter aerogenes EB17
Procedure: as §1

[20] = tested on: Klebsiella pneumoniae X68
Procedure: as §1

[21] = tested on: Enterobacter cloacae EB5
Procedure: as §1

[22] = tested on: Staphylococcus aureus NRRL X1.1
Procedure: as §1

[23] = tested on: Haemophilus influenzae 76; conditions: read-out: MIC
Procedure: as §1

[24] = tested on: Klebsiella pneumoniae KAE
Procedure: as §1

[25] = tested on: Staphylococcus epidermidis EPI270
Procedure: as §1

[26] = tested on: Staphylococcus pyogenes C203; conditions: read-out: MIC
Procedure: as §1

[27] = tested on: Citro CF17
Procedure: as §1

[28] = tested on: Staphylococcus aureus V41
Procedure: as §1

[29] = tested on: Klebsiella pneumoniae X26; conditions: read-out: MIC
Procedure: as §1

[30] = tested on: Serratia X99
Procedure: as §1

[31] = tested on: Serratia SE3
Procedure: as §1

[32] = tested on: Acom AC12
Procedure: as §1

[33] = Klebsiella aerogenes, read-out: MIC

## N[C@@H](C(=O)N[C@@H]1C(=O)N2C(C(=O)O)=C(C(F)(F)F)CC[C@H]12)c1ccccc1 [Compound 1, 7β-[D-α-(amino)phenylacetylamino]-3-trifluoromethyl-1-carba-(1-dethia)-3-cephem-4-carboxyl ic acid]
[1]; read-out: MIC
  MIC: 0.25 µg/mL (≈ 0.652 µM)
[2]
  MIC: 32 µg/mL (≈ 83.5 µM)
[3]; read-out: MIC
  MIC: 4 µg/mL (≈ 10.4 µM)
[4]; [33]
  MIC: 4 µg/mL (≈ 10.4 µM)
[5]
  MIC: 0.125 µg/mL (≈ 0.326 µM)
[6]; read-out: MIC
  MIC: 16 µg/mL (≈ 41.7 µM)
[7]; read-out: MIC
  MIC: 32 µg/mL (≈ 83.5 µM)
[8]; read-out: MIC
  MIC: 16 µg/mL (≈ 41.7 µM)
[9]; read-out: MIC
  MIC: 64 µg/mL (≈ 167 µM)
[10]; read-out: MIC
  MIC: 0.5 µg/mL (≈ 1.3 µM)
[11]; read-out: MIC
  MIC: 2 µg/mL (≈ 5.22 µM)
[12]; read-out: MIC
  MIC: 0.5 µg/mL (≈ 1.3 µM)
[13]; read-out: MIC
  MIC: 0.5 µg/mL (≈ 1.3 µM)
[14]; read-out: MIC
  MIC: 16 µg/mL (≈ 41.7 µM)
[15]; read-out: MIC
  MIC: 32 µg/mL (≈ 83.5 µM)
[16]; read-out: MIC
  MIC: 8 µg/mL (≈ 20.9 µM)
[17]; read-out: MIC
  MIC: 1 µg/mL (≈ 2.61 µM)
[18]; read-out: MIC
  MIC: 1 µg/mL (≈ 2.61 µM)
[19]; [33]
  MIC: 4 µg/mL (≈ 10.4 µM)
[20]; read-out: MIC
  MIC: 0.5 µg/mL (≈ 1.3 µM)
[21]; read-out: MIC
  MIC: 8 µg/mL (≈ 20.9 µM)
[22]; NRRLX1.1, read-out: MIC
  MIC: 2 µg/mL (≈ 5.22 µM)
[23]
  MIC: 1 µg/mL (≈ 2.61 µM)
[24]; read-out: MIC
  MIC: 8 µg/mL (≈ 20.9 µM)
[25]; read-out: MIC
  MIC: 4 µg/mL (≈ 10.4 µM)
[26]
  MIC: 0.06 µg/mL (≈ 0.157 µM)
[27]; read-out: MIC
  MIC: 8 µg/mL (≈ 20.9 µM)
[28]; read-out: MIC
  MIC: 16 µg/mL (≈ 41.7 µM)
[29]
  MIC: 0.25 µg/mL (≈ 0.652 µM)
[30]; read-out: MIC
  MIC: 8 µg/mL (≈ 20.9 µM)
[31]; read-out: MIC
  MIC: 32 µg/mL (≈ 83.5 µM)

## N[C@@H](C(=O)N[C@@H]1C(=O)N2C(C(=O)O)=C(C(F)(F)F)CC[C@H]12)c1ccc(O)cc1 [Compound 2, [6R,7S]-7β-[D-α-(amino)-4-hydroxyphenylacetylamino]-3-trifluoromethyl-1-carba-1-dethia-3-cephem-4-carboxylic acid]
[1]; read-out: MIC
  MIC: 0.19 µg/mL (≈ 0.476 µM)
[2]
  MIC: 70.4 µg/mL (≈ 176 µM)
[3]; read-out: MIC
  MIC: 2.2 µg/mL (≈ 5.51 µM)
[4]; [33]
  MIC: 2.08 µg/mL (≈ 5.21 µM)
[5]
  MIC: 0.2 µg/mL (≈ 0.501 µM)
[6]; read-out: MIC
  MIC: 2.3 µg/mL (≈ 5.76 µM)
[7]; read-out: MIC
  MIC: 26.7 µg/mL (≈ 66.9 µM)
[8]; read-out: MIC
  MIC: 22.4 µg/mL (≈ 56.1 µM)
[9]; read-out: MIC
  MIC: 102 µg/mL (≈ 255 µM)
[10]; read-out: MIC
  MIC: 0.7 µg/mL (≈ 1.75 µM)
[11]; read-out: MIC
  MIC: 0.85 µg/mL (≈ 2.13 µM)
[12]; read-out: MIC
  MIC: 0.48 µg/mL (≈ 1.2 µM)
[13]; read-out: MIC
  MIC: 0.75 µg/mL (≈ 1.88 µM)
[14]; read-out: MIC
  MIC: 2.3 µg/mL (≈ 5.76 µM)
[32]; read-out: MIC
  MIC: 21.3 µg/mL (≈ 53.3 µM)
[15]; read-out: MIC
  MIC: 32 µg/mL (≈ 80.1 µM)
[16]; read-out: MIC
  MIC: 6.7 µg/mL (≈ 16.8 µM)
[17]; read-out: MIC
  MIC: 0.58 µg/mL (≈ 1.45 µM)
[18]; read-out: MIC
  MIC: 0.58 µg/mL (≈ 1.45 µM)
[19]; [33]
  MIC: 1.83 µg/mL (≈ 4.58 µM)
[20]; read-out: MIC
  MIC: 0.6 µg/mL (≈ 1.5 µM)
[21]; read-out: MIC
  MIC: 4.3 µg/mL (≈ 10.8 µM)
[22]; NRRLX1.1, read-out: MIC
  MIC: 0.85 µg/mL (≈ 2.13 µM)
[23]
  MIC: 0.9 µg/mL (≈ 2.25 µM)
[24]; read-out: MIC
  MIC: 2.3 µg/mL (≈ 5.76 µM)
[25]; read-out: MIC
  MIC: 4.4 µg/mL (≈ 11 µM)
[26]
  MIC: 0.025 µg/mL (≈ 0.0626 µM)
[27]; read-out: MIC
  MIC: 5.3 µg/mL (≈ 13.3 µM)
[28]; read-out: MIC
  MIC: 7.2 µg/mL (≈ 18 µM)
[29]
  MIC: 0.3 µg/mL (≈ 0.751 µM)
[30]; read-out: MIC
  MIC: 4.7 µg/mL (≈ 11.8 µM)
[31]; read-out: MIC
  MIC: 16 µg/mL (≈ 40.1 µM)

## CON=C(C(=O)N[C@@H]1C(=O)N2C(C(=O)O)=C(C(F)(F)F)CC[C@H]12)c1csc(N)n1 [Compound 4, [7S,6R]-7-([2-Amino-4-thiazolyl(methoxyimino)acetyl]amido)-3-trifluoromethyl-1-carba(b 1-dethia)-3-cephem-4-carboxylic acid]
[1]
  MIC: .015 µg/mL (≈ 0.0346 µM)
[2]
  MIC: 16 µg/mL (≈ 36.9 µM)
[3]
  MIC: 4 µg/mL (≈ 9.23 µM)
[4]
  MIC: .25 µg/mL (≈ 0.577 µM)
[6]
  MIC: .125 µg/mL (≈ 0.288 µM)
[7]
  MIC: 4 µg/mL (≈ 9.23 µM)
[8]
  MIC: 1 µg/mL (≈ 2.31 µM)
[9]
  MIC: 128 µg/mL (≈ 295 µM)
[10]
  MIC: .015 µg/mL (≈ 0.0346 µM)
[11]
  MIC: .06 µg/mL (≈ 0.138 µM)
[12]
  MIC: .03 µg/mL (≈ 0.0692 µM)
[13]
  MIC: .125 µg/mL (≈ 0.288 µM)
[14]
  MIC: 64 µg/mL (≈ 148 µM)
[32]
  MIC: 16 µg/mL (≈ 36.9 µM)
[15]
  MIC: > 128 µg/mL
[16]
  MIC: 1 µg/mL (≈ 2.31 µM)
[17]
  MIC: .06 µg/mL (≈ 0.138 µM)
[18]
  MIC: .06 µg/mL (≈ 0.138 µM)
[19]
  MIC: .125 µg/mL (≈ 0.288 µM)
[20]
  MIC: .015 µg/mL (≈ 0.0346 µM)
[21]
  MIC: .25 µg/mL (≈ 0.577 µM)
[22]
  MIC: 4 µg/mL (≈ 9.23 µM)
[24]
  MIC: 32 µg/mL (≈ 73.8 µM)
[25]
  MIC: 8 µg/mL (≈ 18.5 µM)
[27]
  MIC: 8 µg/mL (≈ 18.5 µM)
[28]
  MIC: 8 µg/mL (≈ 18.5 µM)
[30]
  MIC: .5 µg/mL (≈ 1.15 µM)
[31]
  MIC: 2 µg/mL (≈ 4.62 µM)
